According to patent US6017911A, “Pyridonecarboxylic acid derivatives and intermediates for the synthesis thereof” (Dainippon Pharmaceutical Co., Ltd., priority 1996, dated 2000):
≈ marks a conversion by molar mass, not a printed value. Where two headings read alike, the source gives them in different places.

Columns and labels:
[1] = system: Staphylococcus aureus 50774; experiment: In vitro antibacterial activity (MIC), Staphylococcus aureus 50774; assay type: cell-based; conditions: Staphylococcus aureus 50774; read-out: Minimum inhibitory concentration (MIC)
[2] = system: Staphylococcus aureus MS16405; experiment: In vitro antibacterial activity (MIC), Staphylococcus aureus MS16405; assay type: cell-based
[3] = system: Escherichia coli NIHJ JC-2; experiment: In vitro antibacterial activity (MIC), Escherichia coli NIHJ JC-2; assay type: cell-based; conditions: NIHJJC2, read-out: Minimum inhibitory concentration (MIC)
[4] = system: Pseudomonas aeruginosa No 12; experiment: In vitro antibacterial activity (MIC), Pseudomonas aeruginosa No 12; assay type: cell-based; conditions: NO12, read-out: Minimum inhibitory concentration (MIC)
[5] = system: Staphylococcus aureus 50774; experiment: Effect on systemic infection in mice; assay type: in vivo, mice (male Std-ddy strain); conditions: 168 h; Staphylococcus aureus 50774 i.p. infection; oral, twice (immediately and 6 h after infection); survival 7 days after infection
Description: The effects (ED50; mg/kg) on systemic infection in mice were determined as follows: Male Std-ddy strain mice (weighing about 20 g) were infected with each of the pathogenic bacteria shown in Table 2 by administering 5×10^3 viable cells intraperitoneally to each mouse. Then, a suspension of each test compound in 0.4% carboxymethylcellulose was orally administered twice, i.e., immediately after infection and 6 hours after infection. Seven days after infection, the ED50 value was calculated from the survival rate of each mouse group by probit analysis.
As a reference compound, there was used enoxacin [1-ethyl-6-fluoro-1,4-dihydro-4-oxo-7-(1-piperazinyl-1,8-naphthyridine-3-carboxylic acid; hereinafter abbreviated as ENX] that is an excellent antibacterial agent currently on the market.
The test compounds shown in the following Tables 1 and 2 are identified by the respective numbers of the Examples which will be given later.

[6] = Staphylococcus aureus MS16405, read-out: Minimum inhibitory concentration (MIC)

| MIC [1] | MIC [2, 6] | MIC [3] | MIC [4] | Structure (SMILES) | ED50 [5] | MIC ([2]; Staphylococcus aureus, MS16405, read-out: Minimum inhibitory concentration (MIC)) |
| --- | --- | --- | --- | --- | --- | --- |
| 0.006 µg/mL (≈ 0.0144 µM) | 1.56 µg/mL (≈ 3.74 µM) | 0.1 µg/mL (≈ 0.24 µM) | 1.56 µg/mL (≈ 3.74 µM) | COc1c(N2C[C@@H](N)[C@H]3OCC[C@H]32)c(F)c(C)c2c(=O)c(C(=O)O)cn(C3CC3)c12 (relative stereo) [Example 16] | 0.78 mg/kg | – |
| 0.025 µg/mL (≈ 0.0639 µM) | 1.56 µg/mL (≈ 3.99 µM) | 0.006 µg/mL (≈ 0.0153 µM) | 0.39 µg/mL (≈ 0.996 µM) | N[C@H]1CN(c2c(F)cc3c(=O)c(C(=O)O)cn(C4CC4)c3c2F)[C@@H]2CCO[C@@H]21 (relative stereo) [Example 18] | 0.928 mg/kg | – |
| 0.05 µg/mL (≈ 0.134 µM) | – | ≤ 0.003 µg/mL | 0.39 µg/mL (≈ 1.04 µM) | N[C@H]1CN(c2nc3c(cc2F)c(=O)c(C(=O)O)cn3C2CC2)[C@@H]2CCO[C@@H]21 (relative stereo) [Example 22] | – | – |
| ≤ 0.003 µg/mL | 0.78 µg/mL (≈ 1.86 µM) | 0.013 µg/mL (≈ 0.0309 µM) | 0.39 µg/mL (≈ 0.928 µM) | Nc1c(F)c(N2C[C@@H](N)[C@H]3OCCC[C@H]32)c(F)c2c1c(=O)c(C(=O)O)cn2C1CC1 (relative stereo) [Example 21] | – | – |
| ≤ 0.003 µg/mL | 0.39 µg/mL (≈ 0.934 µM) | 0.025 µg/mL (≈ 0.0599 µM) | 0.78 µg/mL (≈ 1.87 µM) | COc1c(N2C[C@H](N)[C@H]3OCC[C@H]32)c(F)c(C)c2c(=O)c(C(=O)O)cn(C3CC3)c12 (relative stereo) [Example 5] | 0.257 mg/kg | – |
| 0.1 µg/mL (≈ 0.251 µM) | – | 0.05 µg/mL (≈ 0.126 µM) | 3.13 µg/mL (≈ 7.86 µM) | N#Cc1c(N2C[C@H](N)[C@H]3OCC[C@H]32)c(F)cc2c(=O)c(C(=O)O)cn(C3CC3)c12 (relative stereo) [Example 38] | – | – |
| 0.025 µg/mL (≈ 0.056 µM) | – | 0.025 µg/mL (≈ 0.056 µM) | 0.39 µg/mL (≈ 0.874 µM) | N[C@@H]1CN(c2nc3c(cc2F)c(=O)c(C(=O)O)cn3-c2ccc(F)cc2F)[C@@H]2CCO[C@H]12 (relative stereo) [Example 29] | – | – |
| 0.025 µg/mL (≈ 0.0578 µM) | 1.56 µg/mL (≈ 3.61 µM) | 0.05 µg/mL (≈ 0.116 µM) | 1.56 µg/mL (≈ 3.61 µM) | CN[C@H]1CN(c2c(F)c(N)c3c(=O)c(C(=O)O)cn(C4CC4)c3c2OC)[C@@H]2CCO[C@H]12 (relative stereo) [Example 9] | 0.415 mg/kg | – |
| 0.025 µg/mL (≈ 0.0543 µM) | 3.13 µg/mL (≈ 6.8 µM) | 0.2 µg/mL (≈ 0.434 µM) | 0.78 µg/mL (≈ 1.69 µM) | Cc1c(F)c(N2C[C@H](N)[C@H]3OCC[C@H]32)nc2c1c(=O)c(C(=O)O)cn2-c1ccc(F)cc1F (relative stereo) [Example 39, 7-[(1R*,5R*,8S*)-8-amino-2-oxa-6-azabicyclo[3.3.0]oct-6-yl]-6-fluoro-1-(2,4-difluorophenyl)-1,4-dihydro-5-methyl-4-oxo-1,8-naphthyridine-3-carboxylic acid] | – | – |
| 0.025 µg/mL (≈ 0.0613 µM) | 0.78 µg/mL (≈ 1.91 µM) | 0.013 µg/mL (≈ 0.0319 µM) | 0.78 µg/mL (≈ 1.91 µM) | N[C@H]1CN(c2c(F)cc3c(=O)c(C(=O)O)cn(C4CC4)c3c2Cl)[C@@H]2CCO[C@@H]21 (relative stereo) [Example 15] | 1.12 mg/kg | – |
| ≤ 0.003 µg/mL | 0.78 µg/mL (≈ 1.93 µM) | 0.025 µg/mL (≈ 0.062 µM) | 0.78 µg/mL (≈ 1.93 µM) | COc1c(N2C[C@@H](N)[C@H]3OCC[C@H]32)c(F)cc2c(=O)c(C(=O)O)cn(C3CC3)c12 (relative stereo) [Example 23] | – | – |
| 0.025 µg/mL (≈ 0.0599 µM) | 6.25 µg/mL (≈ 15 µM) | 0.1 µg/mL (≈ 0.24 µM) | 3.13 µg/mL (≈ 7.5 µM) | CN[C@@H]1CN(c2c(F)cc3c(=O)c(C(=O)O)cn(C4CC4)c3c2OC)[C@@H]2CCO[C@@H]21 (relative stereo) [Example 35] | – | – |
| 0.013 µg/mL (≈ 0.0324 µM) | 1.56 µg/mL (≈ 3.89 µM) | 0.025 µg/mL (≈ 0.0623 µM) | 0.78 µg/mL (≈ 1.94 µM) | Cc1c(F)c(N2C[C@H](N)[C@H]3OCC[C@H]32)c(C)c2c1c(=O)c(C(=O)O)cn2C1CC1 (relative stereo) [Example 24] | – | – |
| 0.013 µg/mL (≈ 0.032 µM) | 1.56 µg/mL (≈ 3.84 µM) | 0.006 µg/mL (≈ 0.0148 µM) | 0.2 µg/mL (≈ 0.492 µM) | Nc1c(F)c(N2C[C@H](N)[C@H]3OCC[C@H]32)c(F)c2c1c(=O)c(C(=O)O)cn2C1CC1 (relative stereo) [Example 3, 5-Amino-7-[(1R*,5R*,8S*)-8-amino-2-oxa-6-azabicyclo[3.3.0]oct-6-yl]-1-cyclopropyl-6,8-difluoro-1,4-dihydro-4-oxoquinoline-3-carboxylic acid] | 0.398 mg/kg | – |
| 0.025 µg/mL (≈ 0.0626 µM) | 1.56 µg/mL (≈ 3.91 µM) | 0.05 µg/mL (≈ 0.125 µM) | 3.13 µg/mL (≈ 7.84 µM) | C=Cc1c(N2C[C@H](N)[C@H]3OCC[C@H]32)c(F)cc2c(=O)c(C(=O)O)cn(C3CC3)c12 (relative stereo) [Example 33] | – | – |

| Structure (SMILES) | MIC [1] | MIC [2, 6] | MIC [3] | MIC [4] | ED50 [5] | MIC ([2]; Staphylococcus aureus, MS16405, read-out: Minimum inhibitory concentration (MIC)) |
| --- | --- | --- | --- | --- | --- | --- |
| COc1c(N2C[C@H](N)[C@H]3OCC[C@H]32)c(F)cc2c(=O)c(C(=O)O)cn(C3CC3)c12 (relative stereo) [Example 1, 7-[(1R*,5R*,8S*)-8-amino-2-oxa-6-azabicyclo[3.3.0]oct-6-yl]-1-cyclopropyl-6-fluoro-1,4-dihydro-8-methoxy-4-oxoquinoline-3-carboxylic acid] | ≤ 0.003 µg/mL | – | 0.013 µg/mL (≈ 0.0322 µM) | 0.39 µg/mL (≈ 0.967 µM) | 0.36 mg/kg | 0.39 µg/mL (≈ 0.967 µM) |
